Measured values reported in patent US6562584B1, “Bacterial strains for the production of 2-keto-L-gulonic acid” (priority 1998, dated 2003).

What was measured:
mouse astrogial cells = conditions: Bishop et al., Nutrition Reviews 56:287-293 (1998); cited from earlier work
[1] = test system: strains NRRL B-30035, NRRL B-30037N, and NRRL B-30036; test: Antibiotic resistance by minimum inhibitory concentration (MIC), commercial "Pasco" system; type: cell-based; conditions: strains NRRL B-30035 (ADM 291-19), NRRL B-30037N (ADM 62A-12A), NRRL B-30036 (ADM 266-13B), based on physiologically attainable concentrations of antibiotic
Excerpt: (6) Antibiotic resistance—sensitive to amikacin, augmentin (amoxicillin plus clavulonic acid), ampicillin, cefazolin, cefoxitin, ceftazidime, ceftiofur, cephalothin, enrofloxacin, florfenicol, gentamicin, imipenem, kanamycin, sarafloxicin, tetracycline, ticarcillin, and tilmicosin, but resistant to tribrissen ([…] plus sulfamethozole), as determined by minimum inhibitory concentration (MIC), based on physiologically attainable concentrations of antibiotic, employing the commercial “Pasco” system; and […]

Compound | nerve growth factor synthesis (mouse astrogial cells) | Antibiotic resistance (sensitive / resistant) as determined by minimum inhibitory concentration (MIC) [1]
O=C(O)c1cc(C(=O)O)c2c(n1)C(=O)C(=O)c1cc(C(=O)O)[nH]c1-2 [PQQ, 2,7,9-tricarboxy-1H-pyrrolo[2,3-f]quino-line-4,5-dione] | increases | –
NCC[C@H](O)C(=O)N[C@@H]1C[C@H](N)[C@@H](O[C@H]2O[C@H](CN)[C@@H](O)[C@H](O)[C@H]2O)[C@H](O)[C@H]1O[C@H]1O[C@H](CO)[C@@H](O)[C@H](N)[C@H]1O [amikacin] | – | sensitive
CC1(C)S[C@@H]2[C@H](NC(=O)[C@H](N)c3ccccc3)C(=O)N2[C@H]1C(=O)O [ampicillin] | – | sensitive
Cc1nnc(SCC2=C(C(=O)O)N3C(=O)[C@@H](NC(=O)Cn4cnnn4)[C@H]3SC2)s1 [cefazolin] | – | sensitive
CO[C@@]1(NC(=O)Cc2cccs2)C(=O)N2C(C(=O)O)=C(COC(N)=O)CS[C@@H]21 [cefoxitin] | – | sensitive
CC(C)(O/N=C(\C(=O)N[C@@H]1C(=O)N2C(C(=O)[O-])=C(C[n+]3ccccc3)CS[C@H]12)c1csc(N)n1)C(=O)O [ceftazidime] | – | sensitive
CO/N=C(\C(=O)N[C@@H]1C(=O)N2C(C(=O)O)=C(CSC(=O)c3ccco3)CS[C@H]12)c1csc(N)n1 [ceftiofur] | – | sensitive
CC(=O)OCC1=C(C(=O)O)N2C(=O)[C@@H](NC(=O)Cc3cccs3)[C@H]2SC1 [cephalothin] | – | sensitive
CCN1CCN(c2cc3c(cc2F)c(=O)c(C(=O)O)cn3C2CC2)CC1 [enrofloxacin] | – | sensitive
CS(=O)(=O)c1ccc([C@@H](O)[C@@H](CF)NC(=O)C(Cl)Cl)cc1 [florfenicol] | – | sensitive
O=C(O)c1cn(-c2ccc(F)cc2)c2cc(N3CCNCC3)c(F)cc2c1=O [sarafloxicin] | – | sensitive
CC1(C)S[C@@H]2[C@H](NC(=O)[C@H](C(=O)O)c3ccsc3)C(=O)N2[C@H]1C(=O)O [ticarcillin] | – | sensitive
CC[C@H]1OC(=O)C[C@@H](O)[C@H](C)[C@@H](O[C@@H]2O[C@H](C)[C@@H](O)[C@H](N(C)C)[C@H]2O)[C@@H](CCN2C[C@H](C)C[C@H](C)C2)C[C@@H](C)C(=O)/C=C/C(C)=C/[C@@H]1CO[C@@H]1O[C@H](C)[C@@H](O)[C@@H](OC)[C@H]1OC [tilmicosin] | – | sensitive
gentamicin | – | sensitive
